ChEMBL document CHEMBL2331297, “Potent and selective tariquidar bioisosters as potential PET radiotracers for imaging P-gp” (Bioorg Med Chem Lett, 2013)

Columns and labels:
MDR1 (ABCB1, P-gp) [1] = molecular target: T1, MDR1 (ABCB1, P-gp) (Homo sapiens, UniProt P08183); assay: Ratio of MC90 EC50 to compound EC50 for MDR1 (unknown origin) by fluorometric analysis; settings: not told, read-out: Ratio EC50
MDR1 (ABCB1, P-gp) [2] = molecular target: T1, MDR1 (ABCB1, P-gp); assay: Activity at MDR1 (unknown origin) expressed in MDCK cells assessed as ATPase activity at 50 uM after 2 hrs by ATPlite assay; type: cell-based; settings: MDCK cells expressing MDR1, read-out: Activity
[3] = Efflux ratio of apparent permeability from basolateral to apical to apical to basolateral side of human Caco2 cells after 120 mins; type: ADME, cell-based; settings: Caco-2
[4] = molecular target: Multidrug resistance-associated protein 1 (Homo sapiens, UniProt P33527); assay: Activity at MRP1 (unknown origin) expressed in MDCK cells using calcein AM as substrate incubated for 30 mins prior to substrate addition measured after 30 mins by fluorometric analysis; type: cell-based
[5] = molecular target: T2, Broad substrate specificity ATP-binding cassette transporter ABCG2 (Homo sapiens, UniProt Q9UNQ0); assay: Activity at BCRP (unknown origin) expressed in MDCK cells using […] as substrate incubated for 30 mins prior to substrate addition measured after 30 mins by fluorometric analysis; type: cell-based
T2 sequence (Q9UNQ0 whole entry): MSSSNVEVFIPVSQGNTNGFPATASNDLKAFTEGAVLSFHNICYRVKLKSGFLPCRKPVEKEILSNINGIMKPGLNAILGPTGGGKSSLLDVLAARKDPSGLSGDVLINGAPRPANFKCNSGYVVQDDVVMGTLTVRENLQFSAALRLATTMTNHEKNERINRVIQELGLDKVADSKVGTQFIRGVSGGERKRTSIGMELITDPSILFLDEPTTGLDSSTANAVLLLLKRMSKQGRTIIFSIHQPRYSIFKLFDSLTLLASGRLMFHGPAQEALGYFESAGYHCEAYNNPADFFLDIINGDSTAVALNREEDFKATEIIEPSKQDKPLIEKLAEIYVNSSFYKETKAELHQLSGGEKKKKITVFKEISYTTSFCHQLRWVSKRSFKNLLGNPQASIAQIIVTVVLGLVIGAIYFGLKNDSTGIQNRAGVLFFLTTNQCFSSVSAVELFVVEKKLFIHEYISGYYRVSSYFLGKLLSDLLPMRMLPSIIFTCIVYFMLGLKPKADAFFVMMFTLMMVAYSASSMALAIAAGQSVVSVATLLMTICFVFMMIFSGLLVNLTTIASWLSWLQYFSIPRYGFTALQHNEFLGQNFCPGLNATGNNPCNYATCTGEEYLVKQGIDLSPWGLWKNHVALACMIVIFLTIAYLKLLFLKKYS

[6] = molecular target: ATP-dependent translocase ABCB1 (Homo sapiens, UniProt P08183); assay: Activity at MDR1 (unknown origin) expressed in MDCK cells using calcein AM as substrate incubated for 30 mins prior to substrate addition measured after 30 mins by fluorometric analysis; type: cell-based
ATP-dependent translocase ABCB1, sequence (P08183 whole entry): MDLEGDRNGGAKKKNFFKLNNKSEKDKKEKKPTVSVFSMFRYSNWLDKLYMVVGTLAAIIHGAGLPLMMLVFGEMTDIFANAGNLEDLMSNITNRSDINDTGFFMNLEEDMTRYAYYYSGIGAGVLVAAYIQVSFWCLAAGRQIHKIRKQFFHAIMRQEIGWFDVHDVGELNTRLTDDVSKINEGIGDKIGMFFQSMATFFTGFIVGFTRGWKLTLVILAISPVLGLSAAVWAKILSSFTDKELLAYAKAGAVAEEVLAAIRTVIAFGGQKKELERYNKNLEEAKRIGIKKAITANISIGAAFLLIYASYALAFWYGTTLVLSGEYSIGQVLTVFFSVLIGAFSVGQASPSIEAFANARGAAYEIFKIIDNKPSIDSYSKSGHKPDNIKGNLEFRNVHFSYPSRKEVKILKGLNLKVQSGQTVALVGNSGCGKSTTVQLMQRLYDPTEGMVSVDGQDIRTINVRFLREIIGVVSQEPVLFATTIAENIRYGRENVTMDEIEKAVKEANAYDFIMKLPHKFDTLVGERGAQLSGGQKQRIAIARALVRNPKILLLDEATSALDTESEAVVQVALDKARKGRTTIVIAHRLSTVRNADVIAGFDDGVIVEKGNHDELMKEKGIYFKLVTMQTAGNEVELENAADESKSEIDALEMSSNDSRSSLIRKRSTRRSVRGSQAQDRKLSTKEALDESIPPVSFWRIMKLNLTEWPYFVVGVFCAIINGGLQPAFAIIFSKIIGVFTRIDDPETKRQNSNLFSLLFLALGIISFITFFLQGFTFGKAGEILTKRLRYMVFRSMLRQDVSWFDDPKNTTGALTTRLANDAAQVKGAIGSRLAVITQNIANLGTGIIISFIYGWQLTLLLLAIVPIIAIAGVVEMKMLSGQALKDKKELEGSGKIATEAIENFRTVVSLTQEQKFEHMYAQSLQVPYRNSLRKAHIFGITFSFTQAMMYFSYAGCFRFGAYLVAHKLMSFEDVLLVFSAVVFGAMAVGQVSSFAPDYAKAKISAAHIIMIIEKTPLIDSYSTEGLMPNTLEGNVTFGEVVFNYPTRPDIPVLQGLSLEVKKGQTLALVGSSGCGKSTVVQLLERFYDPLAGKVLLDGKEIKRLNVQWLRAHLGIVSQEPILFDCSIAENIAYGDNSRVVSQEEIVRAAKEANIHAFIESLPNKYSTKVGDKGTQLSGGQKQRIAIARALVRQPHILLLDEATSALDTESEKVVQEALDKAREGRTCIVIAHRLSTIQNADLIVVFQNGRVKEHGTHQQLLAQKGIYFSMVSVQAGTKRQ

T1 sequence (P08183 whole entry): as above
Multidrug resistance-associated protein 1, sequence (P33527 whole entry): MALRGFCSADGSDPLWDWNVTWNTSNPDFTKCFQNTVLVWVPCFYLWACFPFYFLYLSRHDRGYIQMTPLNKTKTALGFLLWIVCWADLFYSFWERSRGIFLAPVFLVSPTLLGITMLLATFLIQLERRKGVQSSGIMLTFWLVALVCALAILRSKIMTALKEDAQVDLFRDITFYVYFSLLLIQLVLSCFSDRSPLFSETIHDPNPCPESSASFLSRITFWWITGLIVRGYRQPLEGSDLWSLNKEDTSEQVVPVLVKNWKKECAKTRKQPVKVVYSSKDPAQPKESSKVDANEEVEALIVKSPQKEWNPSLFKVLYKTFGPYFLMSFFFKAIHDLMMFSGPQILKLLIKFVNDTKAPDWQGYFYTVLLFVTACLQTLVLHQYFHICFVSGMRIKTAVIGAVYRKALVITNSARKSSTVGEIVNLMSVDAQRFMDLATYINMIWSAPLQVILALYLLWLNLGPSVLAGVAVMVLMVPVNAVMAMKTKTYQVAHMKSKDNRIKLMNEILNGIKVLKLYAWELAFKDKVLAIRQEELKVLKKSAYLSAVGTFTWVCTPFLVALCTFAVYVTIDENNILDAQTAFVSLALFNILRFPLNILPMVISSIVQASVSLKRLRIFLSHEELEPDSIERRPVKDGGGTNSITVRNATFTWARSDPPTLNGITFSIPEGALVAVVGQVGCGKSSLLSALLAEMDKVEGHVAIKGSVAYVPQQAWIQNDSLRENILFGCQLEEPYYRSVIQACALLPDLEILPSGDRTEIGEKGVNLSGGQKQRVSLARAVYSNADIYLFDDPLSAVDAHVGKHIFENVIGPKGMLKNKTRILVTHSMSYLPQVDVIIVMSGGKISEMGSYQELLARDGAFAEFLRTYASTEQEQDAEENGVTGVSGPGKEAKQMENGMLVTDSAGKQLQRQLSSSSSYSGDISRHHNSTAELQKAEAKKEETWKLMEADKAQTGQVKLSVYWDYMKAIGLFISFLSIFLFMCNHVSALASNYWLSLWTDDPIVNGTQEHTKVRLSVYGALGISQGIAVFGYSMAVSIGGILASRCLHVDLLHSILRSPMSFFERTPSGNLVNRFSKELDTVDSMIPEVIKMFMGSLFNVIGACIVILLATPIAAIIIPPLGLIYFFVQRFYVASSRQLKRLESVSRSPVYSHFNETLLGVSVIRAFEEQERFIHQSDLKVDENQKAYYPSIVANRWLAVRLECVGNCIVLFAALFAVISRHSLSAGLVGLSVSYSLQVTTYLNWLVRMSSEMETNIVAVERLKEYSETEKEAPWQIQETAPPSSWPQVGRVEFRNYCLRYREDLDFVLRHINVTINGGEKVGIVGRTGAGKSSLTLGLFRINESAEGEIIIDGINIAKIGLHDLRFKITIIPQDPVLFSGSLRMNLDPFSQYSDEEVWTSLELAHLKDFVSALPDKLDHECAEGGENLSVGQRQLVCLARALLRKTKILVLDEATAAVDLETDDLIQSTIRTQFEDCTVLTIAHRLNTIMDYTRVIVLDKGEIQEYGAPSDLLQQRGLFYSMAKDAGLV

COc1cc2c(cc1OC)CN(Cc1ccc(Oc3ccc(-c4nc(-c5ccc(F)cc5)cs4)cn3)cc1)CC2
selectivity ratio (MDR1 (ABCB1, P-gp) [1]): 10
activity at 2 h, 50 µM (MDR1 (ABCB1, P-gp) [2]): 18%
efflux ratio at 2 h [3]: 4.5
EC50 [4]: > 100 µM
EC50 [5]: 1 µM
EC50 [6]: 0.41 µM

COc1ccc(-c2nc(CN3CCc4cc(OC)c(OC)cc4C3)cs2)cc1
efflux ratio at 2 h [3]: 6.1
EC50 [4]: 2.7 µM
EC50 [5]: 30 µM
EC50 [6]: 1.94 µM

COc1cc2c(cc1OC)CN(Cc1ccc(Oc3ccc(C(N)=O)cn3)cc1)CC2
EC50 [4]: > 100 µM
EC50 [6]: 19 µM

COc1cc2c(cc1OC)CN(Cc1ccc(Oc3ccc(C(N)=S)cn3)cc1)CC2
EC50 [4]: > 100 µM
EC50 [6]: 11 µM

COc1cccc(-c2csc(-c3ccc(Oc4ccc(CN5CCc6cc(OC)c(OC)cc6C5)cc4)nc3)n2)c1
selectivity ratio (MDR1 (ABCB1, P-gp) [1]): 10
activity at 2 h, 50 µM (MDR1 (ABCB1, P-gp) [2]): 20%
efflux ratio at 2 h [3]: 2.5
EC50 [4]: > 100 µM
EC50 [5]: 0.5 µM
EC50 [6]: 0.95 µM

COc1cc2c(cc1OC)CN(Cc1ccc(Oc3ccc(-c4nc(-c5cccc(O)c5)cs4)cn3)cc1)CC2
selectivity ratio (MDR1 (ABCB1, P-gp) [1]): 10
activity at 2 h, 50 µM (MDR1 (ABCB1, P-gp) [2]): 20%
efflux ratio at 2 h [3]: 0.9
EC50 [4]: > 100 µM
EC50 [5]: 0.018 µM
EC50 [6]: 0.25 µM

COc1cc2c(cc1OC)CN(Cc1ccc(Oc3ccc(-c4nc(-c5ccc([N+](=O)[O-])cc5)cs4)cn3)cc1)CC2
selectivity ratio (MDR1 (ABCB1, P-gp) [1]): 10
activity at 2 h, 50 µM (MDR1 (ABCB1, P-gp) [2]): 16%
efflux ratio at 2 h [3]: 2.7
EC50 [4]: > 100 µM
EC50 [5]: 10 µM
EC50 [6]: 0.51 µM

COc1ccc(-c2ccc(CN3CCc4cc(OC)c(OC)cc4C3)cc2)cc1
efflux ratio at 2 h [3]: 2.6
EC50 [4]: 21 µM
EC50 [5]: 15 µM
EC50 [6]: 0.6 µM

COc1cc2c(cc1OC)CN(CC/C=C1\CCCc3c(OC)cccc31)CC2
efflux ratio at 2 h [3]: 1.64
EC50 [5]: 90 µM

COc1cc2c(cc1OC)CN(CCc1ccc(NC(=O)c3cc(OC)c(OC)cc3NC(=O)c3cnc4ccccc4c3)cc1)CC2 [TARIQUIDAR]
activity at 2 h, 50 µM (MDR1 (ABCB1, P-gp) [2]): 30%
efflux ratio at 2 h [3]: 22
